Experimental data published in article PMC9511493, “2-(Fluoromethoxy)-4′-(S-methanesulfonimidoyl)-1,1′-biphenyl (UCM-1306), an Orally Bioavailable Positive Allosteric Modulator of the Human Dopamine D1 Receptor for Parkinson’s Disease” (Journal of Medicinal Chemistry, 2022).
In brackets after ≈: the same amount, converted by molar mass.

How the values were obtained:
CYP2C9 = biological target: T1, CYP2C9 (Homo sapiens, UniProt P11712); assay: cytochrome inhibition, fluorescence assay, CYP2C9; assay type: in vitro ADME
T1 construct: host or cells: insect cell microsomes
Procedure: (§1) Cytochrome inhibition. The objective of this study was to screen the potential of test […]
(§2) performed using recombinant isoforms CYP1A2, CYP2C9, CYP2C19, CYP2D6, and CYP3A4, and probe substrates with fluorescent detection.
(§3) Assays were conducted in a 200 µL volume in 96-well microtiter plates (COSTAR 3915).
(§4) Addition of cofactor-buffer mixture (KH2PO4 buffer, 1.3 mM NADP, 3.3 mM MgCl2, 3.3 mM glucose -6- phosphate, and 0.4 U/mL glucose -6- phosphate dehydrogenase), supersomes control, standard inhibitors (furafyline, tranylzypromine, ketoconazole, sulfaphenazole, and quinidine from Sigma Aldrich) and test compound to the plate was carried out by a liquid handling station (Zephyr Caliper). The plate was then pre-incubated at 37 °C for 5 min, and the reaction was initiated by the addition of the pr e - warmed enzyme/substrate (E/S) mix. […]
(§5) Fluorescence per well was measured using a fluorescence plate reader (Tecan Infinite M1000 pro) and percentage of inhibition was calculated. hERG ion channel inhibition. […]

human D2R = biological target: T2, human D2R (Homo sapiens, UniProt P14416); assay: functional cAMP assay at recombinant human D2R in CHO cells; assay type: cell-based; conditions: 10 μM compound
T2 construct: expressed in transfected cells; host or cells: in-house CHO cell line
Procedure: Functional studies at human D1 and D2 receptors were carried out in endogenously expressed human D1R in the SK-N-MC cell line (ATCC), and recombinant human D2R stably transfected in an in-house CHO cell line. Cells were thawed and seeded into a black 96-well plate (1 × 10^4 cells/well for SK-N-MC cell line, 5 × 10^3 cells/well for CHO cell line) in Opti-MEM containing 500 μM IBMX (3-isobutyl-1-methylxanthine). Test compounds were added to the cells and incubated for 15 min at 25 °C for D1R, and for 5 min at 37 °C for D2R. After this time, dopamine was added to the corresponding wells and incubated for additional 15 min at 25 °C for D1R, and 10 min at 37 °C for D2R. Next, treated cells were lysed (for the D2R assay, cells were previously treated with 10 μM forskolin for 5 min at 37 °C) and the cAMP concentration was measured by HTRF, using a kit from Cisbio. HTRF was read in a Tecan M1000 Genius Pro reader (λexcitation = 320 nm, λemission = 620 and 665 nm, 30 flashes), and data were normalized to the dopamine maximum effect and fitted to a 4-parameter logistic equation by using Prism v2.1 software (GraphPad Inc).

[1] = solubility by nephelometry; assay type: physicochemical; conditions: PBS buffer with 1% DMSO; maximum solubility by nephelometry
Procedure: Prior to use, the pre-coated PAMPA plate system was warmed to rt for 30 min and 300 μL of 200 μM solution of tested compound in 2% DMSO in PBS were added to the wells in the receiver (donor) plate.
Then, 200 μL of PBS were added to the wells in the filter (acceptor) plate. The filter plate was placed on the receiver plate by slowly lowering the pre-coated PAMPA plate until it sits on the receiver plate. The assembly was incubated at rt for 5 h, and then buffer samples were collected carefully from each plate. […]
CD(t) = compound concentration (μM) in donor well at time t, and Ceq = […]
Solubility. […] The solutions were i ncubated for 2 h at 37 °C and read in a NEPHELOstar Plus instrument (BMG LABTECH). […]
Fluorescence per well was measured using a fluorescence plate reader (Tecan Infinite M1000 pro) and percentage of inhibition was calculated. hERG ion channel inhibition. […] Cell s were maintained at 37 °C in a 5% CO2 atmosphere for 24 h and at 30 °C in a 5% CO 2 atmosphere for 48 h. hERG activity was measured by using the FluxorTM Potassium Ion Chanel Assay Kit (Thermo Fisher F10016). […] After this time, 5 µL of stimulus buffer was added to each well and fluorescence was read (λ ex = 490 nm, λem = 525 nm) every second after the establishment of a baseline line using an imaging plate reader system (FDSS7000EX, Hamamatsu®). […]

human dopamine D1R = biological target: T3, human dopamine D1R (Homo sapiens, UniProt P21728); assay: radioligand binding assay with [3H]SCH23390 at human D1R membranes
T3 construct: purchased Perkin Elmer
Procedure: Binding assays were carried out by using plasma membranes (12 μg/well) expressing human dopamine D1R (Perkin Elmer). […] After this time, the well content was filtered through a Millipore manifold and membranes were washed four times with assay buffer. The plate was dried and radioactivity was measured in a Microbeta Trilux liquid scintillation reader (Perkin Elmer). Non-specific binding was determined in the presence of 1 μM (+)-butaclamol. Data were normalized to the percentage of specific binding and fitted to a 4-parameter logistic equation using with Prism v2.1 software (GraphPad Inc). For the calculation of the affinity ratio of DA in the presence of the allosteric modulators, data were fitted according to the equations reported by Lazareno and Birdsall.[44]

CYP2C19 = biological target: T4, CYP2C19 (Homo sapiens, UniProt P33261); assay: cytochrome inhibition, fluorescence assay, CYP2C19; assay type: in vitro ADME
T4 construct: host or cells: insect cell microsomes
Procedure: as §1, §2, §3, §4, §5

[2] = percentage of inhibition at 10 μM

T1 sequence (P11712 whole entry): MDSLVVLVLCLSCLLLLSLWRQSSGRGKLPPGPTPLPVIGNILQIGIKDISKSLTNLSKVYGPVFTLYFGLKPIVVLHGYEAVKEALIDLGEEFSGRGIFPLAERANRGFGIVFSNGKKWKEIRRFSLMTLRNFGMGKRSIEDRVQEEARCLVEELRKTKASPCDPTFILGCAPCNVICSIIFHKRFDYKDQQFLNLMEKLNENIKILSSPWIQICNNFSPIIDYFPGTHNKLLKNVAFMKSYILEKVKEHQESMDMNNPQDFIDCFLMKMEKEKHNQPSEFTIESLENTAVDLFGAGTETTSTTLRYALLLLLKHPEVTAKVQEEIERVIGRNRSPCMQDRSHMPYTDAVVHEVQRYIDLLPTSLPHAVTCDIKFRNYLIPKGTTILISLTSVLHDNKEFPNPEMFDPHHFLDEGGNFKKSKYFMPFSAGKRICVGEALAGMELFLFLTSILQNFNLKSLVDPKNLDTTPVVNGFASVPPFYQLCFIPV
T2 sequence (P14416 whole entry): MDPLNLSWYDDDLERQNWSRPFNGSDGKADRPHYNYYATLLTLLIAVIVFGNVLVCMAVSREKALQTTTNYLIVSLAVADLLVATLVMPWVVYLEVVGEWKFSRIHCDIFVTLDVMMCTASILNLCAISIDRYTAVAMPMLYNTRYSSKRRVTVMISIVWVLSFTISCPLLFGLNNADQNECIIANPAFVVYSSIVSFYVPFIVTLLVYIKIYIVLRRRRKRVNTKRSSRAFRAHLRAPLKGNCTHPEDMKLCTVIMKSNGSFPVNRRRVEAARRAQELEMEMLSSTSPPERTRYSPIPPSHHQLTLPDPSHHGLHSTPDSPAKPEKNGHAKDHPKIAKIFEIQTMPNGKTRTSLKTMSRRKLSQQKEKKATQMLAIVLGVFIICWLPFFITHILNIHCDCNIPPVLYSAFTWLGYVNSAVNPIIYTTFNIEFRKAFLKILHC
T3 sequence (P21728 whole entry): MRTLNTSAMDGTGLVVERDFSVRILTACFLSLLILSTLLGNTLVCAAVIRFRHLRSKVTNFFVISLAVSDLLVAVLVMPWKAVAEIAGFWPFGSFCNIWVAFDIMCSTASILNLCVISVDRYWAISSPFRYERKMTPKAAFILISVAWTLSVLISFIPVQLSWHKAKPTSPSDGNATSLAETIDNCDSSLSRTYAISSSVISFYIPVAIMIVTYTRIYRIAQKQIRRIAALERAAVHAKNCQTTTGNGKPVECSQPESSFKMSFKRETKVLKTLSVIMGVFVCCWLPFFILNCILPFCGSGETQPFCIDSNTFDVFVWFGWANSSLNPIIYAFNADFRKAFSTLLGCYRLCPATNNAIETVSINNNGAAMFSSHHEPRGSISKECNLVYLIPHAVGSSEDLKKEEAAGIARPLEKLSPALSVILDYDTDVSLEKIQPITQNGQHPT
T4 sequence (P33261 whole entry): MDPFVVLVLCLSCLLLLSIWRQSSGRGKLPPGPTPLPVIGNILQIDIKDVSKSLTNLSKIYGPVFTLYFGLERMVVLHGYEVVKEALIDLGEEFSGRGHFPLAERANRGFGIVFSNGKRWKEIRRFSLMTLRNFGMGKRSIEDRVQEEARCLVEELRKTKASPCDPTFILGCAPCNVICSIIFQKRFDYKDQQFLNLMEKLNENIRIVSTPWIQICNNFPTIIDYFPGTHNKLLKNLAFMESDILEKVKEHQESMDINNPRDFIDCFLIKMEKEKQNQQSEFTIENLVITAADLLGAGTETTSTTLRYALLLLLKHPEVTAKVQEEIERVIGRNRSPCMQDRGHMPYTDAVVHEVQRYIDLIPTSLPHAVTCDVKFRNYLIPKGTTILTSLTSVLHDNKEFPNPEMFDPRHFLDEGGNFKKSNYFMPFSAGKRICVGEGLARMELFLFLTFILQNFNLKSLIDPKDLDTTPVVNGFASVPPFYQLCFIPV

Row | CYP2C9 (%) (CYP2C9; [2]) | CYP2C19 (%) (CYP2C19; [2]) | SMILES | CYP2C9 (%) (CYP2C9; Table S1, concentration not given) | enhancement of DA Emax at human D2 receptor (human D2R) | solubility at 2 h [1] [µM] | displacement of the radioligand [3H]SCH-23390 (human dopamine D1R; at 10 μM) [%] | IC50 (CYP2C19) [µM] | affinity ratio of [3H]SCH-23390 (human dopamine D1R; in the presence of 4 μM DA)
1 | – | – | O=Cc1ccc(-c2ccccc2OCF)cc1 [Compound 3, 2′-(Fluoromethoxy)[1,1′-biphenyl]-4-carbaldehyde] | inactive | did not enhance DA Emax | 15 (≈ 3.45 µg/mL) | 12 | 6.53 ± 1.12 | –
2 | 38 ± 3 | 37 ± 2 | CS(=N)(=O)c1ccc(-c2ccccc2OCF)cc1 (stereo not shown) [Compound 26, 2-(Fluoromethoxy)-4′-(S-methanesulfonimidoyl)-1,1′-biphenyl] | – | subtype selectivity | 50 (≈ 14 µg/mL) | – | – | concentration-dependent increase of the affinity ratio values
